According to ChEMBL document CHEMBL1649519, “Mitochondrial DNA depletion in rat liver induced by fosalvudine tidoxil, a novel nucleoside reverse transcriptase inhibitor prodrug” (Antimicrob Agents Chemother, 2009):

Columns and labels:
Settings in all cases: in vivo
Rattus norvegicus [1] = assay: Toxicity in Sprague-Dawley rat assessed as liver weight at 100 mg/kg, po administered via gavage (reference value: 18 +/- 2.8 g); type: organism-based; set-up: dose 100 mg/kg, route oral
Rattus norvegicus [2] = assay: Hepatotoxicity in Sprague-Dawley rat assessed as plasma GPT level at 100 mg/kg, po administered via gavage (reference value: 78.3 +/- 8.2 U/l); type: toxicity, organism-based; set-up: dose 100 mg/kg, route oral
Rattus norvegicus [3] = assay: Toxicity in Sprague-Dawley rat assessed as mortality at 100 mg/kg, po administered via gavage; type: organism-based; set-up: dose 100 mg/kg, route oral
Rattus norvegicus [4] = assay: Hepatotoxicity in Sprague-Dawley rat assessed as copies of mitochondrial DNA per cell in sciatic nerves at 100 mg/kg, po administered via gavage (reference value: 457 +/- 182 no_unit); type: toxicity, organism-based, Sciatic nerve; set-up: dose 100 mg/kg, route oral
Rattus norvegicus [5] = assay: Hepatotoxicity in Sprague-Dawley rat assessed as copies of mitochondrial DNA per cell in gastrocnemius muscle at 100 mg/kg, po administered via gavage (reference value: 457 +/- 182 no_unit); type: toxicity, organism-based; set-up: dose 100 mg/kg, route oral
Rattus norvegicus [6] = assay: Hepatotoxicity in Sprague-Dawley rat assessed as effect on plasma total bilirubin level at 15 to 100 mg/kg, po administered via gavage; type: toxicity, organism-based; set-up: dose 15-100 mg/kg, route oral
Rattus norvegicus [7] = assay: Hepatotoxicity in Sprague-Dawley rat assessed as copies of mitochondrial DNA per cell in liver at 100 mg/kg, po administered via gavage (reference value: 400 +/- 86 no_unit); type: toxicity, organism-based; set-up: dose 100 mg/kg, route oral
Rattus norvegicus [8] = assay: Hepatotoxicity in Sprague-Dawley rat assessed as copies of mitochondrial DNA per cell in inguinal fat pads at 100 mg/kg, po administered via gavage (reference value: 457 +/- 182 no_unit); type: toxicity, organism-based, Fat pad; set-up: dose 100 mg/kg, route oral
Rattus norvegicus [9] = assay: Toxicity in Sprague-Dawley rat assessed as terminal body weight at 100 mg/kg, po administered via gavage (reference value: 517 +/- 55 g); type: organism-based; set-up: dose 100 mg/kg, route oral
Rattus norvegicus [10] = assay: Toxicity in Sprague-Dawley rat assessed as liver weight at 40 mg/kg, po administered via gavage (reference value: 18 +/- 2.8 g); type: organism-based; set-up: dose 40 mg/kg, route oral
Rattus norvegicus [11] = assay: Toxicity in Sprague-Dawley rat assessed as mortality at 40 mg/kg, po administered via gavage; type: organism-based; set-up: dose 40 mg/kg, route oral
Rattus norvegicus [12] = assay: Toxicity in Sprague-Dawley rat assessed as terminal body weight at 40 mg/kg, po administered via gavage (reference value: 517 +/- 55 g); type: organism-based; set-up: dose 40 mg/kg, route oral
Rattus norvegicus [13] = assay: Hepatotoxicity in Sprague-Dawley rat assessed as copies of mitochondrial DNA per cell in gastrocnemius muscle at 40 mg/kg, po administered via gavage (reference value: 457 +/- 182 no_unit); type: toxicity, organism-based; set-up: dose 40 mg/kg, route oral
Rattus norvegicus [14] = assay: Hepatotoxicity in Sprague-Dawley rat assessed as copies of mitochondrial DNA per cell in liver at 40 mg/kg, po administered via gavage (reference value: 400 +/- 86); type: toxicity, organism-based; set-up: dose 40 mg/kg, route oral
Rattus norvegicus [15] = assay: Hepatotoxicity in Sprague-Dawley rat assessed as copies of mitochondrial DNA per cell in inguinal fat pads at 15 mg/kg, po administered via gavage (reference value: 457 +/- 182 no_unit); type: toxicity, organism-based, Fat pad; set-up: dose 15 mg/kg, route oral
Rattus norvegicus [16] = assay: Hepatotoxicity in Sprague-Dawley rat assessed as copies of mitochondrial DNA per cell in inguinal fat pads at 40 mg/kg, po administered via gavage (reference value: 457 +/- 182 no_unit); type: toxicity, organism-based, Fat pad; set-up: dose 40 mg/kg, route oral
Rattus norvegicus [17] = assay: Hepatotoxicity in Sprague-Dawley rat assessed as copies of mitochondrial DNA per cell in liver at 15 mg/kg, po administered via gavage (reference value: 400 +/- 86); type: toxicity, organism-based; set-up: dose 15 mg/kg, route oral
Rattus norvegicus [18] = assay: Hepatotoxicity in Sprague-Dawley rat assessed as copies of mitochondrial DNA per cell in sciatic nerves at 15 mg/kg, po administered via gavage (reference value: 457 +/- 182 no_unit); type: toxicity, organism-based, Sciatic nerve; set-up: dose 15 mg/kg, route oral
Rattus norvegicus [19] = assay: Hepatotoxicity in Sprague-Dawley rat assessed as copies of mitochondrial DNA per cell in gastrocnemius muscle at 15 mg/kg, po administered via gavage (reference value: 457 +/- 182 no_unit); type: toxicity, organism-based; set-up: dose 15 mg/kg, route oral
Rattus norvegicus [20] = assay: Toxicity in Sprague-Dawley rat assessed as mortality at 15 mg/kg, po administered via gavage; type: organism-based; set-up: dose 15 mg/kg, route oral
Rattus norvegicus [21] = assay: Hepatotoxicity in Sprague-Dawley rat assessed as copies of mitochondrial DNA per cell in sciatic nerves at 40 mg/kg, po administered via gavage (reference value: 457 +/- 182 no_unit); type: toxicity, organism-based, Sciatic nerve; set-up: dose 40 mg/kg, route oral
Rattus norvegicus [22] = assay: Hepatotoxicity in Sprague-Dawley rat assessed as plasma GPT level at 15 mg/kg, po administered via gavage (reference value: 78.3 +/- 8.2 U/l); type: toxicity, organism-based; set-up: dose 15 mg/kg, route oral
Rattus norvegicus [23] = assay: Toxicity in Sprague-Dawley rat assessed as liver weight at 15 mg/kg, po administered via gavage (reference value: 18 +/- 2.8 g); type: organism-based; set-up: dose 15 mg/kg, route oral
Rattus norvegicus [24] = assay: Toxicity in Sprague-Dawley rat assessed as terminal body weight at 15 mg/kg, po administered via gavage (reference value: 517 +/- 55 g); type: organism-based; set-up: dose 15 mg/kg, route oral
Rattus norvegicus [25] = assay: Hepatotoxicity in Sprague-Dawley rat assessed as plasma GPT level at 40 mg/kg, po administered via gavage (reference value: 78.3 +/- 8.2 U/l); type: toxicity, organism-based; set-up: dose 40 mg/kg, route oral

Compound | Activity (Rattus norvegicus [1]) [g] | Activity (Rattus norvegicus [2]) [U/L] | Activity (Rattus norvegicus [3]) | Activity (Rattus norvegicus [4]) | Activity (Rattus norvegicus [5]) | Activity (Rattus norvegicus [6]) | Activity (Rattus norvegicus [7]) | Activity (Rattus norvegicus [8]) | Activity (Rattus norvegicus [9]) [g] | further results
O=c1[nH]cnc2c1ncn2[C@H]1CC[C@@H](CO)O1 [DIDANOSINE] | 16.2 | 68.8 | Non-toxic | 219 | 489 | Non-toxic | 193 | 129 | 501 | 
CCCCCCCCCCCCSC[C@@H](COP(=O)(O)OC[C@H]1O[C@@H](n2cc(C)c(=O)[nH]c2=O)C[C@@H]1F)OCCCCCCCCCC [FOSALVUDINE TIDOXIL] | 14.5 | 96.7 | Toxic | 213 | 548 | Non-toxic | 188 | 158 | 428 | Activity (Rattus norvegicus [10]): 15.6 g; Activity (Rattus norvegicus [11]): Toxic; Activity (Rattus norvegicus [12]): 465 g; Activity (Rattus norvegicus [13]): 534; Activity (Rattus norvegicus [14]): 254; Activity (Rattus norvegicus [15]): 134; Activity (Rattus norvegicus [16]): 159; Activity (Rattus norvegicus [17]): 249; Activity (Rattus norvegicus [18]): 196; Activity (Rattus norvegicus [19]): 475; Activity (Rattus norvegicus [20]): Toxic; Activity (Rattus norvegicus [21]): 205; Activity (Rattus norvegicus [22]): 71 U/l; Activity (Rattus norvegicus [23]): 16.8 g; Activity (Rattus norvegicus [24]): 459 g; Activity (Rattus norvegicus [25]): 80.5 U/L
